Results from patent publication US8277824B2, “Solubilization of cyclohexane-based carboxamide derivatives for use as sensates in consumer products” (The Procter & Gamble Company, priority 2008, dated 2012).
Read-outs that look alike come from different tables or passages of the source. Blank lines part the entries; values can stand above or below the compound they belong to.

Columns and labels:
[1] = Experimental solubility limit of G-180 in liquid solvents (visual clarity); type: physicochemical; conditions: 25° C.
Method: The solubility of G-180 in various solvents was determined as follows. Aliquot one to twenty grams of a target solvent into a vial or flask. Weigh out G-180 to provide a concentration of 25%. […] Visually inspect for clarity. If the solution is not completely clear, add solvent, calculate new concentration of G-180 and repeat the solubilization energy and check for clarity. Once a level of clarity is achieved, repeat the process but increase the G-180 concentration by 10% until clarity is diminished. Once these cross points of clarity are achieved, this is reported as the experimental solubility limit of G-180 in the respective solvent.

[2] = demonstrated in commonly assigned U.S. Application No. 61/003,863; cited from earlier work
[3] = concentration level where the cooling effect could be clearly recognized; Emberger and Hopp 1987; cited from earlier work
Cooling effect (sensory) = type: in vivo; conditions: neoisomer prepared in Procter & Gamble laboratories
Excerpt: Many of the compounds above including menthol have relatively low potency and the duration of the cooling effect is typically short-lived. Thus, it is necessary to include fairly high levels of such compounds when formulating products, which increases cost. In addition, many of these compounds are relatively high cost ingredients since they are expensive to manufacture on an industrial scale. Therefore, compounds with high potency and long lasting cooling effect are highly sought that will require only small amounts for incorporation in a variety of consumer products to provide high impact and long-lasting effect. Such potent and long lasting coolant compounds have recently been described for example in WO 2005/049553A1 to Givaudan including ρ-menthane carboxamides substituted at the amide N-position with an aryl moiety bearing certain substituents. Examples include N-(4-cyanomethylphenyl)-ρ-menthanecarboxamide; N-(4-sulfamoylphenyl)-ρ-menthanecarboxamide; N-(4-cyanophenyl)-ρ-menthanecarboxamide; N-(4-acetylphenyl)-ρ-menthanecarboxamide, N-(4-hydroxymethylphenyl)-ρ-menthanecarboxamide and N-(3-hydroxy-4-methoxyphenyl)-ρ-menthanecarboxamide. […]

G180 Experimental % Solubility ([1]; solvent 2,3-dimethyl Pyrazine): 20.4%
G180 Experimental % Solubility ([1]; solvent 2,5-dimethyl Pyrazine): 20.0%
G180 Experimental % Solubility ([1]; solvent Benzaldehyde): 16.7%
G180 Experimental % Solubility ([1]; solvent Benzyl Salicylate): 14.7%
G180 Experimental % Solubility ([1]; solvent Benzyl alcohol): 21.2%
G180 Experimental % Solubility ([1]; solvent Cuminylaldehyde): 20.0%
G180 Experimental % Solubility ([1]; solvent Isoamyl propionate): 13.2%
G180 Experimental % Solubility ([1]; solvent Menthone): 15.4%
G180 Experimental % Solubility ([1]; solvent Neryl acetate): 7.4%
G180 Experimental % Solubility ([1]; solvent Para-Tolualdehyde): 15.9%
G180 Experimental % Solubility ([1]; solvent Triacetin): 4.4%
G180 Experimental % Solubility ([1]; solvent Water): <0.1%
G180 Experimental % Solubility ([1]; solvent α-Amyl Cinnamic Aldehyde): 12.1%
Structure (SMILES): CC(C)[C@@H]1CC[C@@H](C)C[C@H]1C(=O)Nc1ccc(CC#N)cc1 [G180, N-[4-(cyanomethyl)phenyl]-(1R,2S,5R)-2-isopropyl-5-methylcyclohexanecarboxamide]
cooling effect [2]: intense and long-lasting cooling effect

Structure (SMILES): CC(C)[C@@H]1CC[C@@H](C)C[C@H]1O [L-menthol]
cooling threshold [3]: about 800 ppb

Structure (SMILES): CC(C)[C@@H]1CC[C@@H](C)C[C@@H]1O [d-neomenthol]
cooling threshold [3]: about 25,000 ppb

Structure (SMILES): CC(C)[C@H]1CC[C@H](C)C[C@H]1O [l-neomenthol]
cooling threshold [3]: about 3,000 ppb

Structure (SMILES): CC(C)[C@@H]1CC[C@@H](C)C[C@@H]1C(=O)Nc1ccc(CC#N)cc1 [neoisomer, N-[4-(cyanomethyl)phenyl]-(1S,2S,5R)-2-isopropyl-5-methylcyclohexanecarboxamide]
cooling effect (Cooling effect (sensory)): potent and long-lasting cooling effect
